According to ChEMBL document CHEMBL1681738, “Efficient synthesis of triazole moiety-containing nucleotide analogs and their inhibitory effects on a malic enzyme” (Bioorg Med Chem Lett, 2011):
Activity calls are given as the source filed them. The rule behind the calls is not given here.

Biological target: NAD-dependent malic enzyme (Escherichia coli K12) (UniProt P26616)
Assay: Inhibition of Escherichia coli K-12 recombinant NAD-dependent malic enzyme at 0.2 mM

NAD-dependent malic enzyme (Escherichia coli K12), sequence (P26616 whole entry, looked up): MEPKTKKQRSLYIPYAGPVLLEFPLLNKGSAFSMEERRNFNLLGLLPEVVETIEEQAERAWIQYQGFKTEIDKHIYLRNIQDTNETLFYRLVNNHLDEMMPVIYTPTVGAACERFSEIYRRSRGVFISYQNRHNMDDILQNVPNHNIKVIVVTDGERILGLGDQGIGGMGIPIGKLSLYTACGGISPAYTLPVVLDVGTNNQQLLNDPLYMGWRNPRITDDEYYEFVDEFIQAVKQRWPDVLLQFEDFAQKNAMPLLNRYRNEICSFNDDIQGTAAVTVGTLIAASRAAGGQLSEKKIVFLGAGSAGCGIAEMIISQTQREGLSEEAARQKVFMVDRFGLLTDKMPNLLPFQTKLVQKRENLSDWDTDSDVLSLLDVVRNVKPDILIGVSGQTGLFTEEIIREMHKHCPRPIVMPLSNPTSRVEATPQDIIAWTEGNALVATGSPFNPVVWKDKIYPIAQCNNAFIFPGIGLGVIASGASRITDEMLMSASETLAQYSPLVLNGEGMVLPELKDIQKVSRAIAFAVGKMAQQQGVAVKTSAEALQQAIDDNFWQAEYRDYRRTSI

inhibition | Structure (SMILES)
Active | O=P(O)(O)OC[C@H]1O[C@@H](n2cc(-c3ccccc3C(F)(F)F)nn2)[C@H](O)[C@@H]1O
Active | O=P(O)(O)OC[C@H]1O[C@@H](n2cc(CCO)nn2)[C@H](O)[C@@H]1O
Active | Nc1ccccc1-c1cn([C@@H]2O[C@H](COP(=O)(O)O)[C@@H](O)[C@H]2O)nn1
Active | O=P(O)(O)OC[C@H]1O[C@@H](n2cc(-c3ccccc3)nn2)[C@H](O)[C@@H]1O
Active | Cc1ccccc1-c1cn([C@@H]2O[C@H](COP(=O)(O)O)[C@@H](O)[C@H]2O)nn1
Active | O=P(O)(O)OC[C@H]1O[C@@H](n2cc(-c3ccccc3F)nn2)[C@H](O)[C@@H]1O
Active | CC(=O)NCc1cn([C@@H]2O[C@H](COP(=O)(O)O)[C@@H](O)[C@H]2O)nn1
Active | O=C(NCc1cn([C@@H]2O[C@H](COP(=O)(O)O)[C@@H](O)[C@H]2O)nn1)c1ccccc1
Active | O=P(O)(O)OC[C@H]1O[C@@H](n2cc(-c3ccc(F)cc3)nn2)[C@H](O)[C@@H]1O
Active | COc1ccc(-c2cn([C@@H]3O[C@H](COP(=O)(O)O)[C@@H](O)[C@H]3O)nn2)cc1
Active | O=P(O)(O)OC[C@H]1O[C@@H](n2cc(-c3cccc4ccccc34)nn2)[C@H](O)[C@@H]1O
